Legend:
Rat white adipocytes = experiment: Stimulation of differentiation of the adipocytes (Oil Red O); format: cell-based; settings: Rattus norvegicus, Adipocyte, 120 h, 100 nM test compound; 5 days; Oil Red O ABS550; control = 100%, blank = 0%; Table 7; read-out: Rate of Differentiation (%)
Outline: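 Oil Red O lipid staining, absorbance 550 nm after DMSO extraction, quantified differentiation of rat white adipocytes exposed 5 days to compound (final 100 nM, 0.1% DMSO) in differentiation medium. Percent differentiation normalised between cell-free blank (0%) and DMSO control (100%).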

TNF-α production = experiment: Inhibitory activity against cytokine (TNF-α) production in LPS-stimulated RAW264.7 cells; format: cell-based, mouse; settings: Mus musculus, RAW264.7, 15 h, 1 μM test compound, LPS 10 ng/mL
Outline: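 Mouse RAW264.7 macrophages (5,000 cells/well) stimulated with 10 ng/mL LPS (final) and treated with test compound at 1 μM final for 15 h at 37 °C. Supernatant mouse TNF-α measured by ELISA; % inhibition = 100−(A−B)/(C−B)×100, using unstimulated and LPS-only controls.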

| SMILES | activity at 0.1 µM (Rat white adipocytes) | inhibition at 1 µM (TNF-α production) |
| --- | --- | --- |
| O=C(Nc1ccc2c3c(cccc13)CC2)c1cc([N+](=O)[O-])ccc1Cl [Example 54, N-(Acenaphthen-5-yl)-(2-chloro-5-nitrophenyl)carboxamide] | 118% | 16.8% |
| CCCCCCN(CCCCCC)c1ccc(NC(=O)c2cc([N+](=O)[O-])ccc2Cl)cc1 [Example 138, N-[4-(N,N-di-n-Hexylamino)phenyl]-(2-chloro-5-nitrophenyl)carboxamide] | 126% | 17.8% |
| CC(C)(C)c1cc(C(=O)Nc2ccc(NC(=O)c3cc([N+](=O)[O-])ccc3Cl)cc2)cc(C(C)(C)C)c1O [Example 157, N-[4-[(3,5-di-tert-Butyl-4-hydroxybenzoyl)amino]phenyl]-(2-chloro-5-nitrophenyl)carboxamide] | 116% | 38.6% |
| CCCN(CC)c1ccc(NC(=O)c2cc([N+](=O)[O-])ccc2Cl)cc1 [Example 189, N-[4-(N-Ethyl-N-propylamino)phenyl]-(2-chloro-5-nitrophenyl)carboxamide] | 133% | 16.3% |
